A value given as a limit tells only on which side of the number the result lay.

The text below walks through data of patent US20190307776A1, “AZA-S[…] HUMAN IMMUNODEFICIENCY VIRUS REPLICATION” (priority 2016, published 2019).

The test system of this assay is recombinant NL4-3 virus. Kind of assay: HIV cell culture assay. Conditions: Human immunodeficiency virus 1, NL43, MT2. It is filed as cell-based. In outline:
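Antiviral activity measured in MT-2 cells infected 4–5 days with NL4-3 carrying Renilla luciferase in place of part of nef plus Gag P373S, in the presence of serial inhibitor dilutions. Read-out was luciferase activity by Dual Luciferase lysis/substrate mix.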
Take `C=C(C)[C@@H]1CC[C@]2(CNCCCN3CCS(=O)(=O)CC3)CC[C@]3(C)[C@H](CC[C@@H]4[C@@]5(C)CCN(c6ccc(N)cc6)C(C)(C)[C@@H]5CC[C@]43C)[C@@H]12` [Example 47, 4-(3-((((4aR,6aR,6bR,8aS,11R,11aR,11bR,13aR,13bR)-3-(4-aminophenyl)-4,4,6a,6b,13b-pentamethyl-11-(prop-1-en-2-yl)icosahydro-1H-cyclopenta[5,6]naphtho[2,1-f]isoquinolin-8a-yl)methyl)amino)propyl)thiomorpholine 1,1-dioxide]: the half-maximal effective concentration (EC50) is above 330 nM.
For the molecule `C=C(C)[C@@H]1CC[C@]2(CNCCCN3CCS(=O)(=O)CC3)CC[C@]3(C)[C@H](CC[C@@H]4[C@@]5(C)CCN(c6ccc(C(=O)O)cc6)C(C)(C)[C@@H]5CC[C@]43C)[C@@H]12` [Example 48, 4-((4aR,6aR,6bR,8aS,11R,11aR,11bR,13aR,13bR)-8a-(((3-(1,1-dioxidothiomorpholino)propyl)amino)methyl)-4,4,6a,6b,13b-pentamethyl-11-(prop-1-en-2-yl)hexadecahydro-1H-cyclopenta[5,6]naphtho[2,1-f]isoquinolin-3(2H,4H,13bH)-yl)benzoic acid], the EC50 amounted to 5 nM.
The value for `C=C(C)[C@@H]1CC[C@]2(CNCCCN3CCS(=O)(=O)CC3)CC[C@]3(C)[C@H](CC[C@@H]4[C@@]5(C)CCN(c6ncc(C(=O)O)cn6)C(C)(C)[C@@H]5CC[C@]43C)[C@@H]12` [Example 49, 2-((4aR,6aR,6bR,8aS,11R,11aR,11bR,13aR,13bR)-8a-(((3-(1,1-dioxidothiomorpholino)propyl)amino)methyl)-4,4,6a,6b,13b-pentamethyl-11-(prop-1-en-2-yl)hexadecahydro-1H-cyclopenta[5,6]naphtho[2,1-f]isoquinolin-3(2H,4H,13bH)-yl)pyrimidine-5-carboxylic acid] was 0.7 nM; that for `C=C(C)[C@@H]1CC[C@]2(CNCCCN3CCS(=O)(=O)CC3)CC[C@]3(C)[C@H](CC[C@@H]4[C@@]5(C)CCN(c6ncc(C(N)=O)cn6)C(C)(C)[C@@H]5CC[C@]43C)[C@@H]12` [Example 50, 2-((4aR,6aR,6bR,8aS,11R,11aR,11bR,13aR,13bR)-8a-(((3-(1,1-dioxidothiomorpholino)propyl)amino)methyl)-4,4,6a,6b,13b-pentamethyl-11-(prop-1-en-2-yl)hexadecahydro-1H-cyclopenta[5,6]naphtho[2,1-f]isoquinolin-3(2H,4H,13bH)-yl)pyrimidine-5-carboxamide] was 60 nM.
As for `C=C(C)[C@@H]1CC[C@]2(CN(C)CCCN3CCS(=O)(=O)CC3)CC[C@]3(C)[C@H](CC[C@@H]4[C@@]5(C)CCN(c6ccc(C(=O)O)nc6)C(C)(C)[C@@H]5CC[C@]43C)[C@@H]12` [Example 51, 5-((4aR,6aR,6bR,8aS,11R,11aR,11bR,13aR,13bR)-8a-(((3-(1,1-dioxidothiomorpholino)propyl)(methyl)amino)methyl)-4,4,6a,6b,13b-pentamethyl-11-(prop-1-en-2-yl)hexadecahydro-1H-cyclopenta[5,6]naphtho[2,1-f]isoquinolin-3(2H,4H,13bH)-yl)picolinic acid], the figure is 26 nM.
The value for `C=C(C)[C@@H]1CC[C@]2(C(=O)O)CC[C@]3(C)[C@H](CC[C@@H]4[C@@]5(C)CCN(c6ncc(C(=O)O)cn6)C(C)(C)[C@@H]5CC[C@]43C)[C@@H]12` [Example 52, (4aR,6aR,6bR,8aS,11R,11aR,11bR,13aR,13bR)-3-(5-carboxypyrimidin-2-yl)-4,4,6a,6b,13b-pentamethyl-11-(prop-1-en-2-yl)icosahydro-1H-cyclopenta[5,6]naphtho[2,1-f]isoquinoline-8a-carboxylic acid] was 62 nM.
For the molecule `C=C(C)[C@@H]1CC[C@]2(NCCN3CCS(=O)(=O)CC3)CC[C@]3(C)[C@H](CC[C@@H]4[C@@]5(C)CCN(c6ncc(C(=O)O)cn6)C(C)(C)[C@@H]5CC[C@]43C)[C@@H]12` [Example 53, 2-((4aR,6aR,6bR,8aS,11R,11aR,11bR,13aR,13bR)-8a-((2-(1,1-dioxidothiomorpholino)ethyl)amino)-4,4,6a,6b,13b-pentamethyl-11-(prop-1-en-2-yl)hexadecahydro-1H-cyclopenta[5,6]naphtho[2,1-f]isoquinolin-3(2H,4H,13bH)-yl)pyrimidine-5-carboxylic acid], the EC50 stood at 1 nM.
As for `C=C(C)[C@@H]1CC[C@]2(CNCCCN3CCS(=O)(=O)CC3)CC[C@]3(C)[C@H](CC[C@@H]4[C@@]5(C)CCN(c6ccc(C(=O)O)nn6)C(C)(C)[C@@H]5CC[C@]43C)[C@@H]12` [Example 54, 6-((4aR,6aR,6bR,8aS,11R,11aR,11bR,13aR,13bR)-8a-(((3-(1,1-dioxidothiomorpholino)propyl)amino)methyl)-4,4,6a,6b,13b-pentamethyl-11-(prop-1-en-2-yl)hexadecahydro-1H-cyclopenta[5,6]naphtho[2,1-f]isoquinolin-3(2H,4H,13bH)-yl)pyridazine-3-carboxylic acid], the figure is 280 nM.
On to `C=C(C)[C@@H]1CC[C@]2(CNCCCN3CCS(=O)(=O)CC3)CC[C@]3(C)[C@H](CC[C@@H]4[C@@]5(C)CCN(c6c(O)c(=O)c6=O)C(C)(C)[C@@H]5CC[C@]43C)[C@@H]12` [Example 55, 3-((4aR,6aR,6bR,8aS,11R,11aR,11bR,13aR,13bR)-8a-(((3-(1,1-dioxidothiomorpholino)propyl)amino)methyl)-4,4,6a,6b,13b-pentamethyl-11-(prop-1-en-2-yl)hexadecahydro-1H-cyclopenta[5,6]naphtho[2,1-f]isoquinolin-3(2H,4H,13bH)-yl)-4-hydroxycyclobut-3-ene-1,2-dione], for which the EC50 was 250 nM.
As for `C=C(C)[C@@H]1CC[C@]2(CNCCCN3CCS(=O)(=O)CC3)CC[C@]3(C)[C@H](CC[C@@H]4[C@@]5(C)CCN(c6ncc(C(=O)O)s6)C(C)(C)[C@@H]5CC[C@]43C)[C@@H]12` [Example 56, 2-((4aR,6aR,6bR,8aS,11R,11aR,11bR,13aR,13bR)-8a-(((3-(1,1-dioxidothiomorpholino)propyl)amino)methyl)-4,4,6a,6b,13b-pentamethyl-11-(prop-1-en-2-yl)hexadecahydro-1H-cyclopenta[5,6]naphtho[2,1-f]isoquinolin-3(2H,4H,13bH)-yl)thiazole-5-carboxylic acid], the figure is 4 nM.
